From US20100075907A1, “NEUROMEDIN U RECEPTOR AGONISTS AND USES THEREOF” (priority 2006, published 2010) come the findings set out here.

Non-standard residues stand in square brackets, D forms with d. Residues, ends and D or L forms follow the SMILES beside them. *: point of attachment. Succinimide(1-Et,3-yl) = CCN1C(=O)CC(*)C1=O

The target in one assay is T1, mouse NMUR1-ATG (Mus musculus, UniProt O55040).
T1 sequence (O55040 1-428): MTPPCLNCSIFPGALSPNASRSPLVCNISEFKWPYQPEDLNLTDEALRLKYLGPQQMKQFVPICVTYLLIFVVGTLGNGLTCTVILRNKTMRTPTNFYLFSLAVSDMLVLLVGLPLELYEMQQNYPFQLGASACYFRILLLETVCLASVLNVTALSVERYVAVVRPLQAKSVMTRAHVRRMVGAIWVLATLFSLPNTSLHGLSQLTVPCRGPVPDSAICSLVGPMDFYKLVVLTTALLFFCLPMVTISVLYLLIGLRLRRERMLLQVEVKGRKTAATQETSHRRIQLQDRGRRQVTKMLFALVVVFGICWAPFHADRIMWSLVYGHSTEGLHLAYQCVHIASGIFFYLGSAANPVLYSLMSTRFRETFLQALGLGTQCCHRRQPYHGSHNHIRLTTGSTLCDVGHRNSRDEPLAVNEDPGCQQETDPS
The assay is described as follows: 125I-hNMU-25 binding assay, mouse R1-ATG. Also on record: expressed in transfected cells; host or cells: HEK-293 FLP-In cells (pcDNA5). To be noted: for IC50: binding. The method, then: (§1) Confluent cell monolayers expressing NMU receptors (the HEK cells described above) were harvested with phosphate buffered saline, collected by centrifugation, and resuspended in membrane buffer (50 mM TrisCl pH 7.4, 5 mM MgCl2, 1× Protease Inhibitor Cocktail, 10 μM phosphoramidon). After the cell pellet was homogenized, the solution was centrifuged at 18,000 rpm for 20 minutes at 4° C. The pellet was resuspended in membrane buffer to yield a final concentration of 0.5-5 μg/μL of membrane and stored at −80° C.
(§2) Experiments were performed in assay buffer (25 mM TrisCl, pH 7.4, 10 mM MgCl2, 2 mM EDTA, 1× Protease Inhibitor Cocktail, 100 μg/mL Bacitricin, 10 μM phosphoramidon) in 200 μL volumes in a 96-well format using 2-5 μg of membrane and 0.1 nM ^125I-hNMU-25 (about 12,000 cpm/well). For non-specific binding, 1 μM hNMU-25 was added. About 5 μL of peptides were added to measure antagonist activity, and the entire reaction was incubated at room temperature with shaking for 80 minutes. The reaction was terminated by rapid filtration through 0.3% poly-ethylenimine presoaked Millipore 96-well filter plates and washed with ice-cold buffer (5 mM TrisCl pH 7.4, 10 mM MgCl2, 2.5 mM EDTA, 0.04% Triton X-100). Plates were air-dried overnight at room temperature and recovered radioactivity was determined by standard scintillation counting. IC50 values were determined using GraphPad Prism software.
(§3) Concentration-response curves and radioligand-binding data were fitted using Prism (GraphPad Software). Results are summarized below in Tables 8 and 9.

For a further assay, the target named is T2, Mouse NMUR1-CTG (Mus musculus, UniProt O55040).
T2 sequence (O55040 1-428): T1 sequence (O55040 1-428)
The assay is described as follows: 125I-hNMU-25 binding assay, mouse R1-CTG. Also on record: expressed in transfected cells; host or cells: HEK-293 FLP-In cells (pcDNA5). To be noted: for IC50: binding. The method, then:
as §1, §2, §3

A further assay addresses mouse NMUR2 (Mus musculus, UniProt Q8BZ39). The assay can be described thus: 125I-hNMU-25 binding assay, mouse R2. Details: expressed in transfected cells; host or cells: HEK-293 FLP-In cells (pcDNA5). Particulars: for IC50: binding. The protocol:
as §1, §2, §3

The target in assay [1] is T3, rat NMUR1-TTG (Rattus norvegicus, UniProt Q9JJI5).
T3 sequence (Q9JJI5 1-425): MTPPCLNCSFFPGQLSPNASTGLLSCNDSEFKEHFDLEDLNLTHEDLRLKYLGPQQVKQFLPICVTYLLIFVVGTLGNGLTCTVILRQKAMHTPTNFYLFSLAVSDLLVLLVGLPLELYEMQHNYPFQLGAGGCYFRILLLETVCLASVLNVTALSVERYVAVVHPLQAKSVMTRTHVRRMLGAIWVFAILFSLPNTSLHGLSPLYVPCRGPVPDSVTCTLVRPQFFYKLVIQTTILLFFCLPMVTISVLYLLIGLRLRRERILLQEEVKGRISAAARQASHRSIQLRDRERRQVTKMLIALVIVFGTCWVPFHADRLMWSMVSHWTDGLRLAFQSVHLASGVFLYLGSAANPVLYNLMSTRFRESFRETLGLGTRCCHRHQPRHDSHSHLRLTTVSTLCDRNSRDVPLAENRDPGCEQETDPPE
The assay can be described thus: 125I-hNMU-25 binding assay, rat R1-TTG. Also on record: expressed in transfected cells; host or cells: HEK-293 FLP-In cells (pcDNA5). Particulars: for IC50: binding. The protocol: as §1, §2, §3

In another assay the target is rat NMUR2 (Rattus norvegicus, UniProt Q9ESQ4). The assay is described as follows: 125I-hNMU-25 binding assay, rat R2. To be noted: for IC50: binding. Also on record: expressed in transfected cells; host or cells: HEK-293 FLP-In cells (pcDNA5). The method, then: as §1, §2, §3
Assay [2] concerns the target T3, rat NMUR1-TTG. The assay is described as follows: FLIPR calcium mobilization assay, rat NMUR1-TTG. The format is cell-based. Also on record: expressed in transfected cells; host or cells: FLP-In CHO or HEK-293 FLP-In cells (pcDNA5). Particulars: functional data, rat R1-TTG. In general terms: Calcium assays in cells follow changes in intracellular calcium, usually with a dye or a luminescent sensor.

For another assay, the target named is T4, hNMUR1 (Homo sapiens, UniProt Q9HB89).
T4 sequence (Q9HB89 1-426): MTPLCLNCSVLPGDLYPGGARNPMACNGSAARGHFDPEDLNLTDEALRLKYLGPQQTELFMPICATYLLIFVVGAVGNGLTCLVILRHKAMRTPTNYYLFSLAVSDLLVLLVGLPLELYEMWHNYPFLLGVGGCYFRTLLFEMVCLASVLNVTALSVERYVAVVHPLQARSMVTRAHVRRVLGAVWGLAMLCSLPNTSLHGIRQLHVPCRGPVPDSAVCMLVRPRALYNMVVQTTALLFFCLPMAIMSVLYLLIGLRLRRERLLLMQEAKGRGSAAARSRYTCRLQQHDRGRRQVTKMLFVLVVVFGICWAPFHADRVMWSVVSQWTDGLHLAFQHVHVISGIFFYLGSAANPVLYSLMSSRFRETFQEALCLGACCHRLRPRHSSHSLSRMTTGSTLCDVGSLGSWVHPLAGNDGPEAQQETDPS
The assay can be described thus: FLIPR calcium mobilization assay, human NMUR1. The format is cell-based. To be noted: functional data, human R1. Details: expressed in transfected cells; host or cells: FLP-In CHO or HEK-293 FLP-In cells (pcDNA5); HEK-293/aeq17 lines (pIRES-puro) were also made.

As usually defined, the IC50 is the midpoint of a concentration-inhibition curve.

mouse NMUR2, sequence (Q8BZ39 whole entry): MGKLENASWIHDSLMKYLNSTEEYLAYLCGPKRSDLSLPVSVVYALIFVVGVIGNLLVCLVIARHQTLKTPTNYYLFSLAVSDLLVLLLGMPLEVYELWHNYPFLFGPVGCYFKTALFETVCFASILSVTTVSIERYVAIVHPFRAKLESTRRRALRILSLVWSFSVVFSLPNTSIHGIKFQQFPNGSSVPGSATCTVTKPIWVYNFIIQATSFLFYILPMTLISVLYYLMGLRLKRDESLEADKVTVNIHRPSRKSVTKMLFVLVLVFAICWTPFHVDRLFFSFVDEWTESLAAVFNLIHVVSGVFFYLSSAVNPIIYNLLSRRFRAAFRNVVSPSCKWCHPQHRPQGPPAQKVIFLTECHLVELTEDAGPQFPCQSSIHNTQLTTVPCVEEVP
rat NMUR2, sequence (Q9ESQ4 whole entry): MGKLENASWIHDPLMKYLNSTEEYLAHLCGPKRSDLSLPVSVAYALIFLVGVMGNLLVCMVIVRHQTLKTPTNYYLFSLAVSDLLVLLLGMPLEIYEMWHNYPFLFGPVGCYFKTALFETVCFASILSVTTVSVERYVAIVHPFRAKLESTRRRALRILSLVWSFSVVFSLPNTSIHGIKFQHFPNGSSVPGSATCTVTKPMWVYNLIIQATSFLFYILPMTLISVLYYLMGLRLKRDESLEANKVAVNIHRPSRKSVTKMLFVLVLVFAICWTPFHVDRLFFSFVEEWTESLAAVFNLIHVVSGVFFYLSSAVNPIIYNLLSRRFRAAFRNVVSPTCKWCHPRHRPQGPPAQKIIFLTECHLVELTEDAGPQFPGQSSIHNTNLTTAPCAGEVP

For the compound `CC(C)C[C@@H](NC(=O)[C@H](Cc1ccccc1)NC(=O)[C@H](Cc1ccc(O)cc1)NC(=O)CNC(=O)[C@H](CCCNC(=N)N)NC(=O)[C@H](CO)NC(=O)[C@H](CCC(N)=O)NC(=O)[C@H](CO)NC(=O)[C@H](C)NC(=O)[C@H](Cc1ccccc1)NC(=O)[C@@H]1CCCN1C(=O)[C@H](CO)NC(=O)[C@H](CCC(N)=O)NC(=O)[C@H](Cc1ccccc1)NC(=O)[C@H](CCC(=O)O)NC(=O)[C@H](CCC(=O)O)NC(=O)[C@H](CC(=O)O)NC(=O)[C@@H](NC(=O)[C@H](CCCNC(=N)N)NC(=O)[C@@H](N)Cc1ccccc1)C(C)C)C(=O)N[C@@H](Cc1c[nH]c2ccccc12)C(=O)N[C@@H](CCCNC(=N)N)C(=O)N1CCC[C@H]1C(=O)N[C@@H](CCCNC(=N)N)C(=O)N[C@@H](CC(N)=O)C(N)=O` [Agonist H] (H-FRVDEEFQSPFASQSRGYF[dL]WRPRN-NH2; N-terminus assumed), the “% inhibition of NMU-25 binding” value at mouse NMUR1-ATG was 77%; on Mouse NMUR1-CTG, 83%; on mouse NMUR2, 20%; on rat NMUR1-TTG [1], 100%; on rat NMUR2, 0%. Further, the IC50 on mouse NMUR1-ATG is 66 nM; at Mouse NMUR1-CTG, 25 nM; at mouse NMUR2, over 1000 nM; on rat NMUR1-TTG [1] it was 11 nM; on rat NMUR2, over 1000 nM; at rat NMUR1-TTG [2], 153 nM. In addition, the IC50 on hNMUR1 is 1.25 nM.
As for `CCN1C(=O)CC(SC[C@H](NC(C)=O)C(=O)N[C@@H](Cc2ccccc2)C(=O)N[C@@H](CCCNC(=N)N)C(=O)N[C@H](C(=O)N[C@@H](CC(=O)O)C(=O)N[C@@H](CCC(=O)O)C(=O)N[C@@H](CCC(=O)O)C(=O)N[C@@H](Cc2ccccc2)C(=O)N[C@@H](CCC(N)=O)C(=O)N[C@@H](CO)C(=O)N2CCC[C@H]2C(=O)N[C@@H](Cc2ccccc2)C(=O)N[C@@H](C)C(=O)N[C@@H](CO)C(=O)N[C@@H](CCC(N)=O)C(=O)N[C@@H](CO)C(=O)N[C@@H](CCCNC(=N)N)C(=O)NCC(=O)N[C@@H](Cc2ccc(O)cc2)C(=O)N[C@@H](Cc2ccccc2)C(=O)N[C@H](C)C(=O)N[C@@H](Cc2c[nH]c3ccccc23)C(=O)N[C@@H](CCCNC(=N)N)C(=O)N2CCC[C@H]2C(=O)N[C@@H](CCCNC(=N)N)C(=O)N[C@@H](CC(N)=O)C(N)=O)C(C)C)C1=O` (some centres unmarked) [NMU13] (Ac-C(Succinimide(1-Et,3-yl))FRVDEEFQSPFASQSRGYF[dA]WRPRN-NH2), the “% inhibition of NMU-25 binding” value at mouse NMUR1-ATG came to 100%; at Mouse NMUR1-CTG, 100%; on mouse NMUR2, 30%; on rat NMUR1-TTG [1], 100%; at rat NMUR2, 0%. Moreover, the 50% inhibitory concentration (IC50) on mouse NMUR2 and on rat NMUR2 was over 1000 nM each time.
As to “H-FRVDEEFQSPFASQSRGYFLFRPRN-NH2 [hNMU-25, reference compound]”, the 50% inhibitory concentration (IC50) at mouse NMUR1-ATG was found to be 0.4 nM; on Mouse NMUR1-CTG, 0.15 nM; on mouse NMUR2 it was 0.2 nM; at rat NMUR1-TTG [1], 0.2 nM; at rat NMUR2 it was 0.6 nM; at rat NMUR1-TTG [2] it was 1 nM. Besides, the concentration for half-maximal inhibition (IC50) on hNMUR1 is 0.2 nM.
